# In paper PMC9038752, “Molecular mechanisms of bifunctional vitamin D receptor agonist-histone deacetylase inhibitor hybrid molecules in triple-negative breast cancer” (Scientific Reports, 2022):
# “Also recorded” adds a separate entry of the source.
# Columns and labels:
# VDR [1] = molecular target: T1, VDR (Mus musculus, UniProt P48281); assay: Cyp24a1 induction assay for VDR agonism in 4TO7 cells; type: cell-based; conditions: 24 h
# T1 construct: endogenous in cells; host or cells: 4TO7 and 4T1 mouse triple-negative breast cancer cells
# T1 sequence (P48281 1-422): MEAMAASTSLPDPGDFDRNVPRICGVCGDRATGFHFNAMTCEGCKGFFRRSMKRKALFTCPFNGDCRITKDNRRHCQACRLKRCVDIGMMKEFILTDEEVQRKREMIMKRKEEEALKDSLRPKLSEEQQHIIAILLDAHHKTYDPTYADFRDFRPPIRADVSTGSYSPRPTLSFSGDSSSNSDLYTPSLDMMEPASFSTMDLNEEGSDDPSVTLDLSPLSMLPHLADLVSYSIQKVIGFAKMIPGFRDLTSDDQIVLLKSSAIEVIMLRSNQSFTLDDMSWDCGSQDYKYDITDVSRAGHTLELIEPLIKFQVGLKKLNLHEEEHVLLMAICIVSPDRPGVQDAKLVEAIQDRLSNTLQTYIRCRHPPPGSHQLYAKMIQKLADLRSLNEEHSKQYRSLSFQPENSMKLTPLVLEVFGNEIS
# Description: (§1) Figure 5 (a) and (b) Analysis of induced Cyp24a1 expression in 4TO7 (a) and 4T1 (b) cells to test for VDR agonism of DK-406 and heterocyclic analogues after 24 h treatment. c-e. Analysis of the cytotoxicity of hybrid compounds after 24 h using the MTGlo assay (see Methods for details) in 4TO7 (c), 4T1 (d) and MDA-MB-231 (e) cells. […] Each condition was compared to control. *: p ≤ 0.05, **: p ≤ 0.01, ***: p ≤ 0.001, ****: p ≤ 0.0001, ns: not significant.
# (§2) As previously, we were interested in studying the efficacy of hybrids in models of TNBC. We used the 4T1 cell line[20] as well as the related TNBC cell line 4TO7, which was derived from the same mouse tumor as 4T1 cells in Balb/c mice[33]. 4TO7 cells readily form primary tumors. […] These lines also have the advantage that anti-tumor efficacy studies can be performed in Balb/c mice, which have intact immune systems. Compounds were initially tested for VDR agonist activity in 4TO7 cells by screening induction of the VDR target gene Cyp24a1. […] The pyridyl hybrids were then tested for efficacy in vitro in 4TO7 and 4T1 cells using an MT-Glo assay in which only viable cells can convert a precursor into a substrate for a luciferase bioluminescence assay (Fig. 5c,d; see Methods for details).
# Mouse 4T07 cells and 4T01 cells were cultured in DMEM (319–005-CL; WISENT Inc.) supplemented with 10% heat-inactivated FBS. MB-MDA231 cells were cultured in Leibovitz’s L-15 medium with 10% heat-inactivated FBS in the absence of CO2.
# RNA extraction was performed with the FavorPrep tissue total RNA mini kit (FAVORGEN Biotech Corporation—FATRK 001) as per manufacturer’s instructions. cDNA was obtained from 1 µg of RNA using 5X All-in-One RT Mastermix (Applied Biological Materials (abm) Inc.—G485) and diluted 5 times. qPCR was performed with BrightGreen 2X q-PCR MasterMix (abm—MasterMix-LR-XL) on a Roche LightCycler 96 system. Expression of targeted genes was normalized to 18S RNA.
# [2] = tested on: H3K9 and H3K27 acetylation (class I HDACs); assay: Western blotting of H3K9 and H3K27 acetylation in 4TO7 cells; type: cell-based, mouse; conditions: 10^–5 M, 6 h, western blot
# Description: The hybrids were assessed to determine their HDACi and VDR agonist activity as well as their antiproliferative properties relative to DK-406. HDACi activity was assessed in vitro using an acetylated lysine substrate that releases a fluorescent reporter upon HDACi deacetylation and subsequent trypsin digestion. Increasing sidechain length of pyrimidine hybrids enhanced the potency of HDAC6 inhibition, with several compounds inhibiting HDAC6 with a sub-micromolar IC50, similar to that of DK-406 (Fig. 4a). […] Next, we analyzed the effects of compounds on levels of H3K9 and H3K27 acetylation in 4TO7 cells, which are controlled by class I HDACs[29],[30]. […] We also tested the capacity of analogues to induce tubulin acetylation, controlled by class II enzyme HDAC6[32], in 4TO7 cells. […]
# Figure 4 (a) Results of in vitro assays for inhibition of purified HDAC2 and HDAC6 by DK-406 and heterocyclic hybrids as measured by inhibition of deacetylation of a fluorometric substrate (see Methods for details). […]
# After treatments, 4T07 cells were solubilized in Lysis Buffer (20 mM Tris, pH 8, 150 mM NaCl, 1% Triton X-100, 3,5 mM SDS, 13 mM deoxycholic acid) and proteins extracted were separated on a 4–15% Tris/Glycine/SDS gel (BIO RAD). […] Signal was detected using Clarity ECL chemiluminescent substrates (Bio-Rad) and ChemiDoc Imaging System from the same company was used to quantify the intensity of bands. […]
# VDR [3] = molecular target: T1, VDR; assay: Cyp24a1 induction assay for VDR agonism in 4T1 cells; type: cell-based; conditions: 24 h
# Description: as §1, §2
# Mouse 4T07 cells and 4T01 cells were cultured in DMEM (319–005-CL; WISENT Inc.) supplemented with 10% heat-inactivated FBS. […]
Structure (SMILES),VDR agonist activity (Cyp24a1 induction) (VDR [1]),H3 acetylation at K9 and K27 [2],VDR agonist activity (Cyp24a1 induction) (VDR [3]),potency in Cyp24a1 induction assay relative to DK-406 (VDR [1])
CCC(CC)(c1ccc(OCC(O)C(C)(C)C)c(C)c1)c1ccc(OCC(=O)NO)cn1 (stereo not drawn) [AM-155],weakly potent VDR agonists,–,–,–
CCC(CC)(c1ccc(C(=O)NCCCCCC(=O)NO)cc1)c1ccc(OCC(O)C(C)(C)C)c(C)c1 (stereo not drawn) [DK-406],partial agonists,induced H3 acetylation at K9 and K27,full agonists,–
CCC(CC)(c1ccc(OCCCCCC(=O)NO)cc1)c1ccc(OCC(O)C(C)(C)C)c(C)n1 (stereo not drawn) [AM-193],partial agonists,"enhanced H3 acetylation, although to a lesser degree than DK-406",full agonists; also recorded: potency of AM-193 was confirmed,approximately tenfold
CCC(CC)(c1ccc(OCC(O)C(C)(C)C)c(C)c1)c1ccc(OCCCC(=O)NO)cn1 (stereo not drawn) [AM-171],weakly potent VDR agonists,–,–,–
